# Measurements: ChEMBL document CHEMBL1201862, “PubChem BioAssay data set” (2004)
# Activity calls are given as the source filed them.
# Columns and labels:
# [1] = target: Protein disulfide-isomerase (Homo sapiens, UniProt P07237); assay: PDI inhibitors, insulin turbidity readout, confirmation, biochemical, dry powder samples, set 2 (AID 652146)
# [2] = HeLa cell cytotoxicity, dose response, cytotoxicity control, ATP luminescence, dry powder (AID 652117); format: functional, cell-based
# [3] = HEK293T cytotoxicity, dose response, cytotoxicity control for miR-122 modulator project, cell-based, inhibitor set, cherry-pick, set 2 (AID 720697); format: functional
# [4] = LGR2 antagonists, dose response, cell-based, HEK293, CRE-luciferase reporter, cherry pick (AID 743342); format: functional
# [5] = target: Fructose-bisphosphate aldolase (Mycobacterium tuberculosis, UniProt P9WQA3); assay: Fluorescence-based biochemical high throughput dose response assay for inhibitors of the fructose-bisphosphate aldolase (FBA) of M. tuberculosis.; format: functional
# Sequence of Fructose-bisphosphate aldolase (P9WQA3 whole entry): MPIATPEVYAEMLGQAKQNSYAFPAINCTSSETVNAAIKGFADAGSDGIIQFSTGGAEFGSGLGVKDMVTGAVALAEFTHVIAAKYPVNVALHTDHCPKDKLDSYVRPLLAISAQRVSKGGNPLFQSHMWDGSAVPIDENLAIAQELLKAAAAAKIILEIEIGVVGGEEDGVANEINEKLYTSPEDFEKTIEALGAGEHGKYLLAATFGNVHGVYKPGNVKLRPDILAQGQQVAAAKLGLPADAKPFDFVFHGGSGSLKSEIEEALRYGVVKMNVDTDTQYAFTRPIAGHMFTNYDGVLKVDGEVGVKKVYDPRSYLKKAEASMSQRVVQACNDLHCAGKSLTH
# [6] = T. cruzi growth inhibition in host cells, dose response, cell-based, plate reader, dry powder, set 2 (AID 652275); format: functional
# [7] = test system: BJ; assay: cytotoxicity toward BJ-TERT fibroblasts, dose response, cell-based, RAS-independent, luminescence (AID 1933); format: functional; details: Homo sapiens
# [8] = cells; format: functional, cell-based
# [9] = Luminescence Cell-Based Dose Confirmation HTS to Identify Inhibitors of Platelet Dense Granule Release. [Related pubchem assays: 1663 (Primary HTS), 1678 (Summary of Project)]; format: functional
# [10] = cytotoxicity toward DRD oncogenic fibroblasts, dose response, cell-based, non-viral oncogenic, luminescence (AID 1934); format: functional; details: Homo sapiens
# [11] = inhibitors of intracellular T. cruzi replication, confirmation, NIH3T3 host cells, beta-gal luminescence (AID 2044); format: functional, cell-based;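 note: intracellular parasites grown in NIH/3T3 mouse fibroblasts as host cells; luminescent beta-galactosidase reporter signal from transgenic T. cruzi replicating inside host cells; inhibitors lower the luminescence signal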
# [12] = target: Luciferin 4-monooxygenase (Photinus pyralis, UniProt P08659); assay: firefly luciferase enzyme inhibitors, dose response, biochemical, luminescence (AID 1891)
# Sequence of Luciferin 4-monooxygenase (P08659 whole entry): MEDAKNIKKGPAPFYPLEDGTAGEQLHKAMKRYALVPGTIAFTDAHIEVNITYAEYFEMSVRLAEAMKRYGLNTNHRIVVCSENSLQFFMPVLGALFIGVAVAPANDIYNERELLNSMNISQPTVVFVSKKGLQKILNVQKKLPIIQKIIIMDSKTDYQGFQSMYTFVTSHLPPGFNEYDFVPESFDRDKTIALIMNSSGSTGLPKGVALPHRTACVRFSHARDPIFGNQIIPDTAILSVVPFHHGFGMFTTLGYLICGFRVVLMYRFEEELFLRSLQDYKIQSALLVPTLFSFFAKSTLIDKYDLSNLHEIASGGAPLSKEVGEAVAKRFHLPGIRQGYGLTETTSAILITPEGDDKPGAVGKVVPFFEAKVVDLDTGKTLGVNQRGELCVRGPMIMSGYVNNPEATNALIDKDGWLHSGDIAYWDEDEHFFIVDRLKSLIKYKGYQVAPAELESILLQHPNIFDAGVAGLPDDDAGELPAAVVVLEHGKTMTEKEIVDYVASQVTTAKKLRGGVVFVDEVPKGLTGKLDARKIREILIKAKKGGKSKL
# [13] = target: T1, Sentrin-specific protease 6 (Homo sapiens, UniProt Q9GZR1); format: functional;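 note: Luminescence-based dose-response confirmatory assay of SENP6 inhibition, following up an ultra-high-throughput screen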
# T1 sequence (Q9GZR1 whole entry): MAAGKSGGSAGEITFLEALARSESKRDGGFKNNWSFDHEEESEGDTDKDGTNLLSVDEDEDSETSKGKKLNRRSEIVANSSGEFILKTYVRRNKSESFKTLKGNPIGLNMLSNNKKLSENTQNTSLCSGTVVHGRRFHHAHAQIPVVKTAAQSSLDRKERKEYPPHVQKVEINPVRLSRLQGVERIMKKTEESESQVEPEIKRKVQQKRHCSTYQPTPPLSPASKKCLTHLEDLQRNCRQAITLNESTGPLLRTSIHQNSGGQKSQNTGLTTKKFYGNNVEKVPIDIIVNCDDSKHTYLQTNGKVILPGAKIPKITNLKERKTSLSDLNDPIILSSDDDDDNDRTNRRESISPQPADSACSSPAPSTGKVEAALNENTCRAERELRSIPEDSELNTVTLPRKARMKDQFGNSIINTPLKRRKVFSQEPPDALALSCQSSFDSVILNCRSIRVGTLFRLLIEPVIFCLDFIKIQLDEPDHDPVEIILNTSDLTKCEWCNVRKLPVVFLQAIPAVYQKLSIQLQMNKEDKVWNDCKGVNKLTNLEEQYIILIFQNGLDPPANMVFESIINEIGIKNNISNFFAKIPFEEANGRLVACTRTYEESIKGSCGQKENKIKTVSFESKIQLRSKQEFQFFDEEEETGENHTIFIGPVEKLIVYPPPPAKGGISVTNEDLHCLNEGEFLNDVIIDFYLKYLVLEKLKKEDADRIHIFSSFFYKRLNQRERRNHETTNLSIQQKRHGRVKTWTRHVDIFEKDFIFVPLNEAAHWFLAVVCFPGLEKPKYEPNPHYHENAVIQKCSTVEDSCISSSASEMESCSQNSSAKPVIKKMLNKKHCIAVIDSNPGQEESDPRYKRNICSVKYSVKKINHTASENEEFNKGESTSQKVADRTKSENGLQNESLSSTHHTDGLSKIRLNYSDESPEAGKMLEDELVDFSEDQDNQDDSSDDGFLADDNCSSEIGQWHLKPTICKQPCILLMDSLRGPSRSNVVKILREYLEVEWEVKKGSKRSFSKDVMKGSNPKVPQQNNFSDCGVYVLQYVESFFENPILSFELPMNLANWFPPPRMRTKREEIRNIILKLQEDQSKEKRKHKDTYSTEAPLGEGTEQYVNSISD
# [14] = target: T2, Sentrin-specific protease 8 (Homo sapiens, UniProt Q96LD8); format: functional;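 note: luminescence read-out of SENP8 inhibition, dose-response confirmation following an ultra-high-throughput screen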
# T2 sequence (Q96LD8 whole entry): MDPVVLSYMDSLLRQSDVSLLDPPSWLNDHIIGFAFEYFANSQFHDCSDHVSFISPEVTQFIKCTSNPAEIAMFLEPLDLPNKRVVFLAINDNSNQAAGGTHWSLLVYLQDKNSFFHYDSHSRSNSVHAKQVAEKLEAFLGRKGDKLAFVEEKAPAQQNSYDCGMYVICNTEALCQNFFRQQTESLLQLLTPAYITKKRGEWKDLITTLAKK
# [15] = test system: BJ; assay: cytotoxicity toward BJ-TERT-LT-ST fibroblasts, dose response, cell-based, RAS-independent, luminescence (AID 1935); format: functional; details: Homo sapiens;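 note: BJ fibroblasts immortalized with TERT plus LT and ST oncogenes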
# [16] = cytotoxicity toward NIH3T3 fibroblasts, dose response, counter-screen, cell-based, ATP luminescence, mouse fibroblasts (AID 2010); format: functional;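 note: cells exposed to compound for about 90 hours before reading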
# [17] = target: T3, Caspase-3 (Homo sapiens, UniProt P42574); format: functional;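 note: Dose-response selectivity test against caspase-3 for candidate inhibitors of sentrin-specific proteases (SENPs)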
# T3 sequence (P42574 whole entry): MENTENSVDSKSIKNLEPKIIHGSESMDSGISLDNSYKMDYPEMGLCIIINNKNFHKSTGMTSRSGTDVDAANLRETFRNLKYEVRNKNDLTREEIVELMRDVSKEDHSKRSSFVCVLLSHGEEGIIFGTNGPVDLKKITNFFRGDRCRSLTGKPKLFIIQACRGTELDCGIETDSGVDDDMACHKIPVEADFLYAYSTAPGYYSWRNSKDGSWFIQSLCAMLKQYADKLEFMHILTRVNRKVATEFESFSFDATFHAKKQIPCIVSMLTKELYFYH
# [18] = test system: INS1; assay: beta cell apoptosis inhibitors, cytokine rescue, dose response, luminescence, retest (AID 449756); format: functional, cell-based; details: Rattus norvegicus;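 note: cell death triggered by IL-1 beta plus TNF-alpha plus IFN-gamma mixture; protective hits raise ATP signal compared with cytokine alone wells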
# [19] = target: T4, Sentrin-specific protease 7 (Homo sapiens, UniProt Q9BQF6); format: functional;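 note: Luminescence-based dose-response confirmation of ultra-high-throughput screening hits, measuring inhibition of SENP7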
# T4 sequence (Q9BQF6 whole entry): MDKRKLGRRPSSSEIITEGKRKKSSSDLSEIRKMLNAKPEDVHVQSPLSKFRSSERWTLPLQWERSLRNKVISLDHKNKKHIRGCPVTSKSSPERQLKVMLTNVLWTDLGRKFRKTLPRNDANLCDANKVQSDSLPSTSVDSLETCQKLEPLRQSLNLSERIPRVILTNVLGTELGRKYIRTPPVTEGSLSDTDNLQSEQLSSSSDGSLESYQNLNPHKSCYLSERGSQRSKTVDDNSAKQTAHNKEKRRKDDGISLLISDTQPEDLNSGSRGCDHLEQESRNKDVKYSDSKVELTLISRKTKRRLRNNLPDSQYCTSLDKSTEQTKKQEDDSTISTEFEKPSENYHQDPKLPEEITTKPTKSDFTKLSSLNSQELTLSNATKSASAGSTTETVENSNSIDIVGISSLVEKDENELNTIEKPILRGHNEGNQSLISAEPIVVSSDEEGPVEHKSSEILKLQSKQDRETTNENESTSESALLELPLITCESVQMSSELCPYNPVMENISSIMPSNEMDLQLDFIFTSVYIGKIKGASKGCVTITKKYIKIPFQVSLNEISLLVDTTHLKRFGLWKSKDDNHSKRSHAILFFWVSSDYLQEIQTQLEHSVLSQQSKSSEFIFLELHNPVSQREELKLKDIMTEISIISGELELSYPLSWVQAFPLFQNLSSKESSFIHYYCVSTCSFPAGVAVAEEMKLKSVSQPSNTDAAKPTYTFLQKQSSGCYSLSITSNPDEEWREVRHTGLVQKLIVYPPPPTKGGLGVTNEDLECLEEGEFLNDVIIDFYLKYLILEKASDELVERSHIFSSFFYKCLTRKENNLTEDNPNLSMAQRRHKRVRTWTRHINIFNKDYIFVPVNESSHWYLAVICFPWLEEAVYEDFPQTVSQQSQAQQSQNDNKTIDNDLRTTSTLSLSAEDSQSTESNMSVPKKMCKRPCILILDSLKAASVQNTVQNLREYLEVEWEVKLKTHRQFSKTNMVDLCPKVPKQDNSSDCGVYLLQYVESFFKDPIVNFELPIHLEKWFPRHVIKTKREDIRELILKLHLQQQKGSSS
# [20] = HepG2 cell cytotoxicity, dose response, cytotoxicity control, ATP luminescence, cherry-pick, activator set 2 (AID 1053143); format: functional, cell-based
# [21] = test system: BJ; assay: cells; format: functional, cell-based; details: Homo sapiens
# [22] = cells; format: functional, cell-based; remark: listed apart in the source
# Sequence of Protein disulfide-isomerase (P07237 whole entry): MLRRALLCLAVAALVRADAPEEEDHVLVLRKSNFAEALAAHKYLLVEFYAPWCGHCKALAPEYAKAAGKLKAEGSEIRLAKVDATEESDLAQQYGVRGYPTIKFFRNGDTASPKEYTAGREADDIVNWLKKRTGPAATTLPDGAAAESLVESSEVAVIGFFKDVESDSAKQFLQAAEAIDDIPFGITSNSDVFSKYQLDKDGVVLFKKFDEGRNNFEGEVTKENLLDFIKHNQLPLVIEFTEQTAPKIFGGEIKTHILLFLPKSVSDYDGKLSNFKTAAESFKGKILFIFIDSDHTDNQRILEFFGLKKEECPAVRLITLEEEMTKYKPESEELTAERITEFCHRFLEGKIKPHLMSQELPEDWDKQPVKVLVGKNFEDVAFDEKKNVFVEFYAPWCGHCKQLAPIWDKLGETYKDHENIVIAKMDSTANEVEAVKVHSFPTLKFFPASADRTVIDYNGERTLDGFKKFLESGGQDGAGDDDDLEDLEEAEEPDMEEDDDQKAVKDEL
smiles,measurement,setting,value
CCOC(=O)C1(CCOc2ccccc2)CCN(Cc2cccc(Cl)c2)CC1,AC50,[1],> 30 µM (inactive)
same,AC50,[2],32.3 µM (active)
CN1C(=O)c2cc(NC(=O)c3cccs3)ccc2OC[C@H]2O[C@@H](CC(=O)N3CCCCC3)CC[C@H]21,AC50,[3],9.9 µM (active)
C[C@H]1CCCCO[C@H](CN(C)C(=O)Nc2cccc3ccccc23)[C@@H](C)CN([C@@H](C)CO)C(=O)c2cc(NS(=O)(=O)c3cn(C)cn3)ccc2O1,AC50,[4],47 µM (active)
COc1ccc2nc(C)cc(C(=O)O)c2c1,IC50,[5],1.16 µM (active)
CC(C)N1CC2(CN(Cc3ccccc3Cl)C2)Oc2c(NC(=O)c3ccncc3)cccc2C1=O,AC50,[6],0.463 µM (active)
CCN(CC)c1ccc(/C=N/NC(=O)c2ccoc2C)c(O)c1,EC50,[7],3.02 µM (active)
same,EC50,[8],7.38 µM (active)
same,EC50,[9],2.06 µM (active)
same,EC50,[10],6.96 µM (active)
same,EC50,[11],0.83 µM (active)
same,EC50,[12],0.785 µM (active)
same,IC50,[13],0.849 µM (active)
same,IC50,[14],1.33 µM (active)
same,EC50,[15],15.6 µM (active)
same,EC50,[16],3.59 µM (active)
same,IC50,[17],0.942 µM (active)
same,AC50,[18],0.622 µM (active)
same,IC50,[19],0.757 µM (active)
same,AC50,[20],9.01 µM (active)
same,EC50,[21],6.42 µM (active)
same,EC50,[22],51.7 µM (active)
